Measurements: patent publication US20110300147A9, “Inhibiting tumor cell invasion, metastasis and angiogenesis” (The Scripps Research institute, priority 2005, published 2011)
Peptide text beside a SMILES is read from it. * marks the point of attachment. Doxorubicin(3'-N) = COc1cccc2c1C(=O)c1c(O)c3c(c(O)c1C2=O)C[C@@](O)(C(=O)CO)C[C@@H]3O[C@H]1C[C@H](N*)[C@H](O)[C@H](C)O1; Boc = CC(C)(C)OC(=O)*

Experiments:
[1] = molecular target: T1, legumain in MDA MB231 breast cancer cells (Homo sapiens, UniProt Q99538); assay: AEPI inhibitory assay, intracellular legumain activity; assay type: cell-based
T1 construct: endogenous in cells; host or cells: MDA-MB-231 human breast cancer cells
T1 sequence (Q99538 18-323): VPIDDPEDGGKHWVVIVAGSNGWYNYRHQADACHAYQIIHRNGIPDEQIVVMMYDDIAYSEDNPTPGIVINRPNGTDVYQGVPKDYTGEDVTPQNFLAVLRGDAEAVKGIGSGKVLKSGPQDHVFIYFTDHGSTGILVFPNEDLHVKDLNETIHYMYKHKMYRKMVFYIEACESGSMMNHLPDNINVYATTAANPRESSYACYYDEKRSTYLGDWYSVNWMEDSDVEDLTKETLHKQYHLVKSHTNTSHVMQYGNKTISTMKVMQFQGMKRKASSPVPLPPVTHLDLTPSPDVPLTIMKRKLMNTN
Procedure: AEPI Inhibitory Assay. Cancer cells were centrifuged at 800 rpm for 10 minutes and resuspended in DMEM to a density of 1.0×10^5 cells/ml. Approximately 5 ml of cells is used per assay plate. Cells (100 ul) were added to a 96-well plat bottom plate (10,000 cells/well, all the inner wells) and 100 ul of media was added to the outer wells. The cells were incubated at 37° C. overnight. The inhibitor compounds were diluted in a 96 well round bottom plate and the old media was removed from the cancer cell assay plate. The inhibitor (100 ul) was added to the cell assay plate and 200 ul of media was added to the outer wells. One to three days after the cancer cells were exposed to the inhibitor, the AEP activity was assessed as follows. Cells were detached with Trypsin-free cell-cell detachment media and transfer to Eppendorf tubes. Cells were then disrupted and the AEPI substrate was added to the cell lysate. This assay mixture was then incubated for an appropriate period of time and the amount of activated substrate was measured with fluorometer.

[2] = test system: legumain-expressing 293 (293L) cells; assay: TNF-α induced cell death with or without AEPI-5; assay type: cell-based, human; conditions: with or without AEPI-5, function of TNF-α concentration
[3] = test system: cancer cells; assay: chemo-sensitizing cytotoxic assay, TNF-α plus legumain inhibitor; assay type: cell-based; conditions: compared among AEPI-1 to AEPI-5
Procedure: Chemo-sensitizing Cytotoxic Assay. Cancer cells were prepared for the assay as follows. The cells were centrifuged at 800 rpm for 10 minutes, resuspended in DMEM to a density of 1.0×10^5 cells/ml. Approximately 5 ml of cells were used per assay plate. Cells (100 ul) were added to a 96-well flat bottom plate (10,000 cells/well, all the inner wells) and 100 ul of media was added to the outer wells. The plates were incubated at 37° C. overnight. AEPI dilutions were prepared using a 96 well round bottom plate and medium as the diluent. After overnight incubation, the media was removed from the cancer cell assay plate, and the selected AEPI was added at the selected dilution or concentration. An additional 200 ul of media was added to the outer wells. Plates were incubated overnight at 37° C. XTT reagent (or other cell viability reagent) was prepared in phenol red free media. The media was removed from cells and 200 ul of fresh media containing the XTT reagent was added to all wells. The plates were incubated for 30 min to 4 hrs and cell viability was determined by reading the plates according to manufacturer specifications.

[4] = test system: legumain-expressing 293 (293L) cells; assay: UV-induced apoptosis of legumain-expressing 293 cells; assay type: cell-based, human; conditions: dead cells after UV treatment as a function of AEPI-5 concentration
[5] = test system: legumain+ 293 cells; assay: modified Boyden chamber invasion assay; assay type: cell-based, human
Procedure: (§1) Cell invasion and mobility assays. Cell migration and invasion assays were performed as described with modifications (Albini et al., 1987). Stock solutions (15 mg/ml) of Matrigel basement membrane matrix (Becton Dickinson, Bedford, Mass.) were stored at −80° C. in 100 μl aliquots. After thawing on ice, the stock was diluted 1:50 with cold serum-free culture media and immediately applied to each membrane insert (8 μm pore) that formed the upper chambers of the multi-well invasion assay plate. The Matrigel was incubated overnight in a sterile laminar tissue culture hood. The membranes were hydrated for 2 hours with 250 μl of serum-free medium and excess medium was removed by aspiration. Medium containing 10% FBS was added to the bottom of each well. A suspension of 10^5 cells in 150 μl of serum-free medium was added to the upper chamber and incubated for 12 hours at 37° C., 5% CO2. At the indicated times, the membrane inserts were removed from the plate and the non-invading cells were removed from the upper surface. Membrane associated cells were stained with 0.09% crystal violet for 30 minutes and washed twice with PBS. The invading cells were counted microscopically. Cell mobility assays were performed in a similar manner except the membrane inserts were not coated with Matrigel, and duration was shortened. […]

[6] = test system: control 293 cells; assay: WST-1 cytotoxicity assay, control 293 cells; conditions: control 293 cells, 48 h
Procedure: (§2) Cytotoxic assays. The WST-1 cell proliferation reagent (Roche Molecular Chemicals, Germany) was used to determine cell proliferation by quantification of cellular metabolic activity. Control 293 cells and legumain+ 293 cells were cultivated in microtiter plates (5×10^3 cells per well in 100 μl) and were incubated with serial concentrations of legubicin or doxorubicin for 48 h. Subsequently, 10 μl of WST-1 solution (1 mg/ml WST-1, 25 μM -methyldibenzopyrazine methyl sulfate) was added per well, and mixtures were incubated for an additional 4 h. The tetrazolium salt WST-1 (4-[3-(4-lodophenyl)-2-(4-nitrophenyl)-2H-5-tetrazolio-1,3-benzene disfonate) was cleaved by the mitochondrial succinate-tetrazolium-reductase system to formazan in cells which directly correlates to the number of metabolically viable cells in the culture. The amount of formazan salt was quantified in three replicates by absorbance at 450 nm using a micro-plate reader (Molecular Devices, Palo Alto, Calif.).
(§3) Cytotoxicity assays. The WST-1 cell proliferation reagent (Roche Molecular Chemicals, Germany) was used to determine cell proliferation by quantization of cellular metabolic activity. […] The amount of formazan salt was quantified in three replicates by absorbance at 450 nm using a micro-plate reader (Molecular Devices, Palo Alto, Calif.).

[7] = test system: legumain+ 293 cells; assay: WST-1 cytotoxicity assay, legumain+ 293 cells; conditions: 48 h
Procedure: as §2, §3

[8] = test system: CT26 murine colon carcinoma; assay: CT26 syngeneic murine colon carcinoma model; assay type: in vivo, Balb/c mice
Source text: Animal models. […] Balb/C mice aged 4 to 6 weeks from the breeding colony were inoculated with 500,000 syngeneic CT26 tumor cells per site subcutaneously in the back. […] Treatment was repeated at 2 day intervals. The human 293 tumor models were generated in WEHI nude mice (The Scripps Research Institute breeding colony). […] Tumor growth and physical signs were monitored daily including any gross evidence of tumor necrosis, local tumor ulceration as well as evidence of toxicity including mobility, response to stimulus, eating, and weight of each animal. These procedures have been reviewed and approved by the Institutional Animal Care and Use Committee at The Scripps Research Institute. The work was conducted in The Scripps Research Institute facilities which are accredited by the Association for the Assessment and Accreditation of Laboratory Animal Care. The Scripps Research Institute maintains an assurance with the Public Health Service, is registered with the United States Department of Agriculture and is in compliance with all regulations relating to animal care and welfare.
Animal models. […] Treatment was three times per week for two weeks.

[9] = molecular target: T2, cell surface bound legumain (Homo sapiens, UniProt Q99538); assay: gelatin zymogram, activation of progelatinase A by cells expressing legumain; assay type: cell-based; conditions: zymogen incubated with cells 10 minutes
T2 construct: expressed in transfected cells; host or cells: 293 cells stably expressing human legumain (legumain+ 293)
T2 sequence (Q99538 18-323): as above
Procedure: Zymogram. Control 293 cells and legumain+ 293 cells were plated into 96 wells plates at a cell density of 4,000 cells/well. The cells were allowed to attach overnight, then were serum starved for four hours. Zymogen forms of metalloproteinase 2 or 9 (Chemicon, Temecula, Calif.) were added at concentration of 0.1 μg/well with 50 μl reaction buffer (39.5 mM citric acid, 121 mM Na2HPO4, pH 5.8, 1 mM EDTA, and 0.8% […]) and the reactions were continued for 10 minutes. The reactants were collected and mixed with an equal volume of SDS sample buffer and held at room temperature for 10 minutes then applied to a zymogram gel (10% Tris-Glycine gel with 0.1% gelatin substrate). After electrophoresis, the gel was washed briefly and incubated with 2.5% (v/v) Triton X-100 at room temperature for 30 minutes with gentle agitation. Digestion of the incorporated gelatin by activated collagenase was conducted in buffer ([…], pH 7.25, 200 mM NaCl, […], 0.05% Brij-35, 0.02% NaN3) overnight. The gel was stained with Coomassie Blue R250 (Novex, San Diego, Calif.) and the presence of a protease was readily observed as a clear band.
Activation of progelatinase A by legumain. […] Zymogen forms of gelatinase A and B were incubated with the cells for 10 minutes, and the reaction products were analyzed by zymography. […] Moreover, no effect of legumain on zymogen gelatinase B was detected.

[10] = test system: legumain-promoted cancer cell invasion; assay: cancer cell invasion assay with recombinant legumain protein; assay type: cell-based; conditions: recombinant legumain protein added
Procedure: as §1

[11] = test system: legumain+ 293 cells; assay: in vitro migration assay; assay type: cell-based, human
Procedure: as §1

CCOC(=O)C1OC1C(=O)N(CC(N)=O)NC(=O)C(C)NC(=O)C(C)NC(C)=O [AEPI-5, N-acetyl-Ala-Ala-AzaAsn-(S,S)-EPCOOEt] was tested, and the “inhibition of legumain activities in MDA MB231 breast cancer cells” value ([1]; compared among AEPI-1 to AEPI-5) was “greatest inhibition”, the cell permeability ([1]; preliminary results) was “sufficiently cell permeable” and the “TNF-α induced cell death” value [2] was “sensitizes MDA-MB-231 human breast cancer cells to TNF-α induced cell death”. The “cancer cell death on combined treatment with TNF-α” value [3] was “higher levels of cancer cell death” and the UV-induced apoptosis [4] was “sensitizes legumain-expressing 293 cells to UV-induced apoptosis”.
In the case of CC(C)C[C@H](NC(=O)[C@H]1O[C@@H]1C(=O)O)C(=O)NCCCCN=C(N)N [E64, reference compound], the “increased invasion of extracellular matrix by legumain+ cells” value [5] is reported as “without effect”.
With COc1cccc2c1C(=O)c1c(O)c3c(c(O)c1C2=O)C[C@@](O)(C(=O)CO)C[C@@H]3O[C@H]1C[C@H](NC(=O)[C@H](CC(C)C)NC(=O)[C@H](CC(N)=O)NC(=O)[C@H](C)NC(=O)[C@H](C)NC(=O)OC(C)(C)C)[C@H](O)[C@H](C)O1 [legubicin, N-(-t-Butoxycarbonyl-L-alanyl-L-alanyl-L-asparaginyl-L-leucyl)doxorubicin] (Boc-AANL-{Doxorubicin(3'-N)}) the “cytotoxic effect relative to that of doxorubicin” value [6] was “less than 1%”, the “cytotoxic effect on legumain+ 293 cells” value [7] was “profound cytotoxic effect” and the toxicity ([8]; i.p. 5 mg/kg three times at 2 day intervals) was “little evidence of toxicity”. For the same molecule, the “injury in organs that express legumain (kidney, liver)” value ([8]; single injection of 5 mg/kg) was “no injury was evident”.
With cystatin the “generation of the 62 kDa active gelatinase A by cells expressing legumain” value [9] was “inhibited”, the legumain-promoted cell invasion [10] was “partially inhibited” and the “enhanced migration of legumain+ 293 cells” value [11] was “inhibited”. The “increased invasion of extracellular matrix by legumain+ cells” value [5] was “inhibited”.
